Reference: PMC9497102, “Thiosemicarbazone Derivatives Developed to Overcome COTI-2 Resistance” (Cancers, 2022)
Converted amounts (≈) assume the structure as drawn.

How the values were obtained:
[1] = Thermodynamic solubility in water at pH 7.4 (UV-vis); assay type: physicochemical; conditions: water at pH 7.4 (20 mM HEPES buffer), aqueous buffer, thermodynamic from solid, water pH 7.4 (20 mM HEPES), 25 °C, read-out: S (meas.)
Procedure: The thermodynamic solubility of COTI-NMeCy, COTI-Nme2, COTI-NH2, and COTI-2 was measured for the saturated solutions in water at pH 7.4 (20 mM HEPES buffer) at 25.0 ± 0.1 °C. The concentrations of the compounds were determined by UV-vis spectrophotometry using stock solutions of the compounds with known concentrations dissolved in pure DMSO, and 50% and 1% (v/v) DMSO/buffered aqueous solution for the calibration. The parallel artificial membrane permeability assay (PAMPA) was applied for the ligands with a Corning Gentest pre-coated PAMPA Plate System. Peff values were calculated according to the equation reported by Yu et al..

[2] = Copper(II) complex formation, UV-vis titrations and EDTA competition; assay type: physicochemical; conditions: for pCu: calculated at cM = 1 μM, cL = 10 μM, pH = 7.40; for logβ5.9′ [CuL]^+: conditional stability constant, EDTA competition at pH = 5.90; for logβ [CuL]^+: β = β’ × αH, [H+] = 10^–5.90 M
Procedure: The UV-vis spectra were recorded using an Agilent Cary 8454 diode array spectrophotometer in the 200 to 950 nm window, and the path length was varied between 1 and 5 cm, depending on the solubility (thus the applicable concentration). For the spectrophotometric titrations, the same instruments (Metrohm 665 Dosimat burette, Orion 710A pH-meter, Metrohm combined pH glass electrode) and experimental setup (ionic strength: 0.10 M (KCl); titrant: 0.10 M carbonate-free KOH solution in 30% (v/v) DMSO/H2O; samples: prepared in 30% (v/v) DMSO/H2O; calibration: method of Irving et al.; pH range: 1.0 to 13.5; and sample volume: 10 cm^3) were used as in our previous work. Argon overpressure was used for the Fe(II)-containing samples when the Fe(II) stock solution was added to the samples in tightly closed titration vessels, which were previously completely deoxygenated (for 20 min). Measurements were taken with ligands (10–80 μM, depending on solubility) in the presence of 1, 0.5, and 0.3 equiv. of Cu(II), Fe(II), and Fe(III) ions. Equilibrium constants, such as the proton dissociation constants (pKa) of the ligands, the overall stability constants (logβ) of the metal complexes, and the UV-vis spectra of the individual ligand or complex species were computed using the program PSEQUAD [18], as was the case in our previous works.
The conditional stability constants (β’) of the Cu(II) complexes were calculated from competition reactions with EDTA at pH = 5.9 using MES (50 mM) when the metal:ligand ratio was 1:1 (clig = cCu between 10 and 80 μM). Individual samples were prepared in which the ligand:EDTA ratio was variable between 1:0 and 1:50. After a 3 h incubation period, UV-vis spectra were collected. The calculation of the β’ (CuL) values was performed following the same method as that in our previous work using the logβ’5.90 = 13.89 of complex [Cu(EDTA)]^2− obtained from the previously reported equilibrium constants of EDTA and its Cu(II) complex.

[3] = Zinc(II) complex formation, UV-vis spectrophotometric titrations; assay type: physicochemical; conditions: for pZn: calculated at cM = 1 μM, cL = 10 μM, pH = 7.40
[4] = Cyclic voltammetry of copper(II)–ligand (1:1) systems; assay type: physicochemical; conditions: cL = cCu(II) = 1 mM, pH 7.40, 25 °C, 90% (v/v) DMSO/H2O, 0.01 V/s scan rate
Procedure: Cyclic voltammograms for the Fe(III) and Cu(II) complexes were recorded in 90% (v/v) DMSO/water solution containing 1 mM ligand and 0.5 mM FeCl3 or 1 mM CuCl2 using a conventional three-electrode system under nitrogen atmosphere and a PC-Controlled Electrochemical Measurement System (EF 451). The ionic strength was 0.10 M, adjusted by TBAN. Samples were purged for 15 min with Ar before recording the cyclic voltammograms. Platinum electrodes were used as the working and auxiliary electrodes, and Ag/AgCl (3 M KCl) was applied as the reference electrode. The electrochemical potentials were converted into the normal hydrogen electrode (NHE) scale by adding 0.222 V. The instrument was calibrated with an aqueous solution of K3[Fe(CN)6] (E1/2 = +0.386 V vs. NHE). Redox potentials were obtained at different scan rates (5–25 mV/s) in the range of −0.8 to +0.1 V. The dependence of the peak current values of the square root of the scan rates is shown in Figure S5 for the iron and copper complexes of COTI-NMeCy.

[5] = test system: SW480 cells; experiment: MTT viability assay in combination with copper chelator TTM; assay type: cell-based, human; conditions: TTM 1 µM and 5 µM, 72 h
Procedure: For the cytotoxicity, cell viability, and proliferation studies, the 3-(4,5-dimethylthiazol-2-yl)-2,5-diphenyltetrazolium bromide (MTT) assay was utilized. Cells were seeded in 96-well plates at a density of 2 × 10^4 cells/well, with the exception of SW480/Tria, which was used at a density of 3 × 10^4 cells/well. After 24 h of recovery, cells were treated with the indicated concentration of drugs. For the drug combination experiments, verapamil and cyclosporine A (CSA) were used as […] modulators, and tetrathiomolybdate (TTM) was used as a copper chelator. The TSCs were dissolved in DMSO followed by subsequent dilutions in the medium in order to maintain a final DMSO concentration of <1%. After 72 h, the treatment solution was removed and replaced with 100 µL of MTT solution (EZ4U, Biomedica, Vienna, Austria), which was diluted 1:10 in the growth medium. A TECAN Infinite 200 Pro plate reader was used to measure the absorbance of the solution after 2–3 h incubation at 5% CO2 in an incubator at 37 °C. The anticancer activity was determined with GraphPad Prism software and indicated as IC50 values (half maximum inhibitory concentration).

[6] = T = 25.0 °C, I = 0.10 M (KCl), 30% (v/v) DMSO/H2O

Row | Compound | solubility thermodynamic [1] [µM] | pCu [2] | logβ5.9′ [CuL]^+ [2] | logβ [CuL]^+ [2] | logβ [ZnL2] [3, 6] | logβ [ZnL]^+ [3, 6] | pZn [3] | E′ vs. NHE, copper(II)–ligand (1:1) systems [4] [V] | impact of copper chelator TTM on anticancer activity [5] | logβ [ZnLH]^2+ [3, 6] | free ligand in the presence of zinc(II) ([3]; calculated distribution, 1 µM COTI-2, 2:1 ligand:zinc(II), pH 7.4)
1 | CN(C)C(=S)NN=C1CCCc2cccnc21 (mixture of isomers) [COTI-NMe2, 2-(6,7-Dihydroquinolin-8(5H)-ylidene)-N^4,N^4-dimethylhydrazine-1-carbothioamide] | 417 | 14.7 | 12.23 ± 0.05 | 18.42 | 25.24 ± 0.08 | 13.02 ± 0.04 | 11.7 | -0.24 | strong protective activity | – | –
2 | S=C(N/N=C1\CCCc2cccnc21)N1CCN(c2ccccn2)CC1 [COTI-2, 4-(pyridine-2-yl)-N-([(8E)-5,6,7,8-tetrahydroquinolin-8-ylidene]amino)piperazine-1-carbothioamide] | 0.41 (≈ 0.15 µg/mL) | 15.6 | 13.06 ± 0.02 | 18.19 | 23.23 ± 0.08 | 12.85 ± 0.02 | 11.9 | -0.19 | strong protective activity | 18.54 ± 0.02 | 10–20%
3 | CN(C(=S)N/N=C1\CCCc2cccnc21)C1CCCCC1 [COTI-NMeCy, N-Cyclohexyl-2-(6,7-dihydroquinolin-8(5H)-ylidene)-N^4-methylhydrazine-1-carbothioamide] | 3.9 (≈ 1.23 µg/mL) | 15.0 | 12.56 ± 0.09 | 19.08 | 26.32 ± 0.09 | 12.94 ± 0.04 | 12.1 | -0.22 | strong protective activity | – | –
